According to US20250051300A1, “GRAM-NEGATIVE SPECIFIC ANTIBIOTICS SPARING EFFECT ON GUT MICROBIOME” (THE BOARD OF TRUSTEES OF THE UNIVERSITY OF ILLINOIS, priority 2021, published 2025):
Values after ≈ are worked out from the molar mass of the structure shown. Like-named read-outs stand apart in the source and are kept apart here.

Columns and labels:
[1] = test system: Faecalibacterium prausnitzii; test: MIC, gut commensal bacteria, micro-dilution broth; conditions: Faecalibacterium prausnitzii, ATCC27768
[2] = test system: Bacteroides vulgatus; test: MIC, gut commensal bacteria, micro-dilution broth; conditions: Phocaeicola vulgatus
[3] = test system: Enterococcus faecalis; test: MIC, micro-dilution broth method (CLSI); assay type: cell-based; conditions: Enterococcus faecalis KLE 2341, BHI-ych; read-out: MIC
[4] = test system: Stenotrophomonas maltophilia; test: MIC, gut commensal bacteria, micro-dilution broth; conditions: Stenotrophomonas maltophilia, ATCC13637
[5] = test system: Bacteroides cellulosilyticus; test: MIC, gut commensal bacteria, micro-dilution broth; conditions: Bacteroides cellulosilyticus
[6] = test system: gut microbiome; test: Impact on murine fecal microbiome (16S rRNA sequencing); conditions: oral gavage twice a day for three days; feces at days 0, 7, 10, 31
[7] = test system: Bacteroides fragilis; test: MIC, gut commensal bacteria, micro-dilution broth; conditions: Bacteroides fragilis, ATCC25285
[8] = test system: Streptococcus parasanguinis; test: MIC, gut commensal bacteria, micro-dilution broth; conditions: Streptococcus parasanguinis
[9] = test system: Proteus mirabilis; test: MIC, gut commensal bacteria, micro-dilution broth; conditions: Proteus mirabilis, ATCC35659
[10] = test system: Morganella morganii; test: MIC, gut commensal bacteria, micro-dilution broth; conditions: ATCC25839
[11] = test system: Bifidobacterium longum; test: MIC, gut commensal bacteria, micro-dilution broth; conditions: Bifidobacterium longum, ATCCBAA999
[12] = test system: Streptococcus salivarius; test: MIC, gut commensal bacteria, micro-dilution broth; conditions: Streptococcus salivarius
[13] = test system: Lactobacillus reuteri; test: MIC, gut commensal bacteria, micro-dilution broth; conditions: Limosilactobacillus reuteri, ATCC23272
[14] = test system: Blautia producta; test: MIC, gut commensal bacteria, micro-dilution broth; conditions: Blautia producta, ATCC27340
[15] = test system: Enterobacter cloacae; test: MIC, micro-dilution broth method (CLSI); assay type: cell-based
[16] = test system: Klebsiella pneumoniae; test: MIC, micro-dilution broth method (CLSI); assay type: cell-based
[17] = test system: Escherichia coli; test: MIC, micro-dilution broth method (CLSI); assay type: cell-based

CC1(C)S[C@@H]2[C@H](NC(=O)[C@H](N)c3ccc(O)cc3)C(=O)N2[C@H]1C(=O)O [Amoxicillin]
MIC [1]: 64 µg/mL (≈ 175 µM)
MIC [2]: 2 µg/mL (≈ 5.47 µM)
MIC [3]: 0.25 µg/mL (≈ 0.684 µM)
MIC [4]: > 128 µg/mL
MIC [5]: > 128 µg/mL
effect on gut microbiome taxonomic composition [6]: increases in members of Bacteroidia
MIC [7]: 128 µg/mL (≈ 350 µM)
MIC [8]: 64 µg/mL (≈ 175 µM)
MIC [9]: 0.008 µg/mL (≈ 0.0219 µM)
MIC [10]: 32 µg/mL (≈ 87.6 µM)
MIC [11]: 1 µg/mL (≈ 2.74 µM)
MIC [12]: 0.125 µg/mL (≈ 0.342 µM)
MIC [13]: 1 µg/mL (≈ 2.74 µM)
MIC [14]: 1 µg/mL (≈ 2.74 µM)

CCC[C@@H]1C[C@@H](C(=O)N[C@@H]([C@H]2O[C@H](SC)[C@H](O)[C@@H](O)[C@H]2O)[C@H](C)Cl)N(C)C1 [Clindamycin]
MIC [1]: 0.25 µg/mL (≈ 0.588 µM)
MIC [2]: 16 µg/mL (≈ 37.6 µM)
MIC [3]: 1 µg/mL (≈ 2.35 µM)
MIC [4]: 0.5 µg/mL (≈ 1.18 µM)
MIC [5]: > 128 µg/mL
effect on gut microbiome taxonomic composition [6]: large decreases in the members of Bacilli and Bacteroidia
MIC [7]: 4 µg/mL (≈ 9.41 µM)
MIC [8]: 0.06 µg/mL (≈ 0.141 µM)
MIC [9]: 0.125 µg/mL (≈ 0.294 µM)
MIC [10]: > 128 µg/mL
MIC [11]: 0.5 µg/mL (≈ 1.18 µM)
MIC [12]: 2 µg/mL (≈ 4.71 µM)
MIC [13]: 0.25 µg/mL (≈ 0.588 µM)
MIC [14]: 1 µg/mL (≈ 2.35 µM)

Cc1cc(-c2nc(C(C)(C)C)[nH]c2-c2ccc3c(c2)OCCO3)ccn1 [Compound 1, 4-(2-(tert-butyl)-5-(2,3-dihydrobenzo[b][1,4]dioxin-6-yl)-1H-imidazol-4-yl)-2-methylpyridine]
MIC ([15]; Enterobacter cloacae, ATCC29893, E. cloacae ATCC 29893, read-out: MIC): > 128 µg/mL
MIC ([15]; Enterobacter cloacae, ATCCBAA2468, E. cloacae ATCC BAA-2468, read-out: MIC): 32 µg/mL (≈ 91.6 µM)
MIC ([15]; Enterobacter cloacae, E. cloacae AR-0163, read-out: MIC): 64 µg/mL (≈ 183 µM)
MIC ([16]; Klebsiella pneumoniae, ATCC27736, K. pneumoniae ATCC 27736, read-out: MIC): 16 µg/mL (≈ 45.8 µM)
MIC ([16]; Klebsiella pneumoniae, ATCCBAA1705, K. pneumoniae ATCC BAA-1705, read-out: MIC): > 128 µg/mL
MIC ([16]; Klebsiella pneumoniae, K. pneumoniae AR-0040, read-out: MIC): 32 µg/mL (≈ 91.6 µM)
MIC ([17]; Escherichia coli, ATCC25922, E. coli ATCC 25922, read-out: MIC): 8 µg/mL (≈ 22.9 µM)
MIC ([17]; Escherichia coli, E. coli AR-0549, read-out: MIC): 16 µg/mL (≈ 45.8 µM)
MIC ([17]; Escherichia coli, E. coli ΔrfaC JW3596 (permeability mutant)): 0.25 µg/mL (≈ 0.715 µM)
MIC ([17]; Escherichia coli, E. coli ΔtolC JW5503 (efflux-deficient)): 0.03 µg/mL (≈ 0.0859 µM)

Colistin
MIC ([15]; E. cloacae AR0032): 0.5 µg/mL
MIC ([15]; E. cloacae AR0038): 0.5 µg/mL
MIC ([15]; E. cloacae AR0050): 0.25 µg/mL
MIC ([15]; E. cloacae AR0053): 0.5 µg/mL
MIC ([15]; E. cloacae AR0060): 0.5 µg/mL
MIC ([15]; E. cloacae AR0065): 0.5 µg/mL
MIC ([15]; E. cloacae AR0072): 1 µg/mL
MIC ([15]; E. cloacae AR0073): 8 µg/mL
MIC ([15]; E. cloacae AR0093): 0.5 µg/mL
MIC ([15]; E. cloacae AR0132): 1 µg/mL
MIC ([15]; E. cloacae AR0136): 0.5 µg/mL
MIC ([15]; E. cloacae AR0154): 0.5 µg/mL
MIC ([15]; E. cloacae AR0164): 0.5 µg/mL
MIC ([15]; E. cloacae AR0544): 0.25 µg/mL
MIC ([15]; E. cloacae AR0545): 0.5 µg/mL
MIC ([15]; E. cloacae AR-0163): 16 µg/mL
MIC ([15]; E. cloacae ATCC BAA-2341): 0.5 µg/mL
MIC ([15]; E. cloacae ATCC BAA-2468): 0.25 µg/mL
MIC ([16]; K. pneumoniae AR0034): 0.5 µg/mL
MIC ([16]; K. pneumoniae AR0039): 0.5 µg/mL
MIC ([16]; K. pneumoniae AR0041): 0.5 µg/mL
MIC ([16]; K. pneumoniae AR0042): 0.5 µg/mL
MIC ([16]; K. pneumoniae AR0043): 0.5 µg/mL
MIC ([16]; K. pneumoniae AR0044): 0.5 µg/mL
MIC ([16]; K. pneumoniae AR0046): 4 µg/mL
MIC ([16]; K. pneumoniae AR0047): 4 µg/mL
MIC ([16]; K. pneumoniae AR0049): 0.5 µg/mL
MIC ([16]; K. pneumoniae AR0066): 1 µg/mL
MIC ([16]; K. pneumoniae AR0068): 0.5 µg/mL
MIC ([16]; K. pneumoniae AR0075): 0.5 µg/mL
MIC ([16]; K. pneumoniae AR0076): 0.5 µg/mL
MIC ([16]; K. pneumoniae AR0079): 0.5 µg/mL
MIC ([16]; K. pneumoniae AR0080): 0.5 µg/mL
MIC ([16]; K. pneumoniae AR0087): 4 µg/mL
MIC ([16]; K. pneumoniae AR0098): <0.25 µg/mL
MIC ([16]; K. pneumoniae AR0106): 4 µg/mL
MIC ([16]; K. pneumoniae AR0107): <0.25 µg/mL
MIC ([16]; K. pneumoniae AR0109): >8 µg/mL
MIC ([16]; K. pneumoniae AR0112): 0.5 µg/mL
MIC ([16]; K. pneumoniae AR0113): 0.5 µg/mL
MIC ([16]; K. pneumoniae AR0115): 0.5 µg/mL
MIC ([16]; K. pneumoniae AR0117): 1 µg/mL
MIC ([16]; K. pneumoniae AR0120): 0.5 µg/mL
MIC ([16]; K. pneumoniae AR0125): >4 µg/mL
MIC ([16]; K. pneumoniae AR0126): 0.5 µg/mL
MIC ([16]; K. pneumoniae AR0129): 0.5 µg/mL
MIC ([16]; K. pneumoniae AR0135): 0.5 µg/mL
MIC ([16]; K. pneumoniae AR0138): 2 µg/mL
MIC ([16]; K. pneumoniae AR0139): 2 µg/mL
MIC ([16]; K. pneumoniae AR0140): 0.5 µg/mL
MIC ([16]; K. pneumoniae AR0141): 1 µg/mL
MIC ([16]; K. pneumoniae AR0142): 0.5 µg/mL
MIC ([16]; K. pneumoniae AR0143): 1 µg/mL
MIC ([16]; K. pneumoniae AR0145): 0.5 µg/mL
MIC ([16]; K. pneumoniae AR0146): 0.5 µg/mL
MIC ([16]; K. pneumoniae AR0148): 1 µg/mL
MIC ([16]; K. pneumoniae AR0152): 0.5 µg/mL
MIC ([16]; K. pneumoniae AR0153): 0.5 µg/mL
MIC ([16]; K. pneumoniae AR0158): 0.5 µg/mL
MIC ([16]; K. pneumoniae AR0160): 1 µg/mL
MIC ([16]; K. pneumoniae AR0347): <0.25 µg/mL
MIC ([16]; K. pneumoniae AR0542): >8 µg/mL
MIC ([16]; K. pneumoniae AR0548): 0.5 µg/mL
MIC ([16]; K. pneumoniae AR0550): <0.25 µg/mL
MIC ([16]; K. pneumoniae AR0552): 0.5 µg/mL
MIC ([16]; K. pneumoniae AR0553): 0.5 µg/mL
MIC ([16]; K. pneumoniae AR0554): 0.5 µg/mL
MIC ([16]; K. pneumoniae AR0555): 0.5 µg/mL
MIC ([16]; K. pneumoniae AR-0040): 8 µg/mL
MIC ([17]; E. coli AR0048): 0.5 µg/mL
MIC ([17]; E. coli AR0055): 1 µg/mL
MIC ([17]; E. coli AR0058): 0.5 µg/mL
MIC ([17]; E. coli AR0061): 0.5 µg/mL
MIC ([17]; E. coli AR0067): 1 µg/mL
MIC ([17]; E. coli AR0069): 0.5 µg/mL
MIC ([17]; E. coli AR0077): 0.5 µg/mL
MIC ([17]; E. coli AR0081): 0.5 µg/mL
MIC ([17]; E. coli AR0084): 0.5 µg/mL
MIC ([17]; E. coli AR0085): 0.5 µg/mL
MIC ([17]; E. coli AR0086): 0.5 µg/mL
MIC ([17]; E. coli AR0089): 0.5 µg/mL
MIC ([17]; E. coli AR0104): 0.5 µg/mL
MIC ([17]; E. coli AR0114): 0.25 µg/mL
MIC ([17]; E. coli AR0118): 0.5 µg/mL
MIC ([17]; E. coli AR0119): 0.5 µg/mL
MIC ([17]; E. coli AR0128): 0.5 µg/mL
MIC ([17]; E. coli AR0137): 1 µg/mL
MIC ([17]; E. coli AR0149): 0.5 µg/mL
MIC ([17]; E. coli AR0150): 0.5 µg/mL
MIC ([17]; E. coli AR0151): 0.5 µg/mL
MIC ([17]; E. coli AR0162): 0.5 µg/mL
MIC ([17]; E. coli AR0346): 4 µg/mL
MIC ([17]; E. coli AR0348): 0.25 µg/mL
MIC ([17]; E. coli AR0350): 4 µg/mL
MIC ([17]; E. coli AR0493): 8 µg/mL
MIC ([17]; E. coli AR0494): 8 µg/mL
MIC ([17]; E. coli AR0495): 4 µg/mL
MIC ([17]; E. coli AR0541): 0.5 µg/mL
MIC ([17]; E. coli AR0543): 0.5 µg/mL
MIC ([17]; E. coli AR0546): 0.5 µg/mL
MIC ([17]; E. coli AR0551): 0.5 µg/mL
MIC ([17]; E. coli AR0559): 0.5 µg/mL
MIC ([17]; E. coli AR-0349 (colistin-resistant clinical isolate)): 8 µg/mL
MIC ([17]; E. coli AR-0549): 0.25 µg/mL
MIC ([17]; E. coli ATCC BAA-2340): 0.25 µg/mL
MIC ([17]; E. coli ATCC BAA-2469): 0.25 µg/mL
MIC ([17]; E. coli ATCC BAA-2471): 0.25 µg/mL
MIC ([17]; E. coli ELZ 4004): 0.25 µg/mL
MIC ([17]; E. coli ELZ 4017): 0.25 µg/mL
MIC ([17]; E. coli ELZ 4042): 0.25 µg/mL
MIC ([17]; E. coli ELZ 4072): 0.25 µg/mL
MIC ([17]; E. coli ELZ 4081): 0.25 µg/mL
MIC ([17]; E. coli ELZ 4139): 0.25 µg/mL
MIC ([17]; E. coli ELZ 4239): 0.25 µg/mL
MIC ([17]; E. coli ELZ 4277): 0.25 µg/mL
MIC ([17]; E. coli ELZ 4346): 0.25 µg/mL
